{
  "source": "paper PMC6130562",
  "about": "“A phlorotannin constituent of Ecklonia cava alleviates postprandial hyperglycemia in diabetic mice” (Pharmaceutical Biology, 2017)",
  "key": {"α-glucosidase (yeast)": {"molecular_target": "α-glucosidase (yeast)", "experiment": "chromogenic pNPG hydrolysis assay ([…] nm), commercial yeast enzyme", "type": "biochemical"}, "[1]": {"molecular_target": "T1, α-amylase (porcine pancreatic amylase) (Sus scrofa, UniProt P00690)", "T1 construct": "gene AMY2", "T1 sequence (P00690 16-511)": "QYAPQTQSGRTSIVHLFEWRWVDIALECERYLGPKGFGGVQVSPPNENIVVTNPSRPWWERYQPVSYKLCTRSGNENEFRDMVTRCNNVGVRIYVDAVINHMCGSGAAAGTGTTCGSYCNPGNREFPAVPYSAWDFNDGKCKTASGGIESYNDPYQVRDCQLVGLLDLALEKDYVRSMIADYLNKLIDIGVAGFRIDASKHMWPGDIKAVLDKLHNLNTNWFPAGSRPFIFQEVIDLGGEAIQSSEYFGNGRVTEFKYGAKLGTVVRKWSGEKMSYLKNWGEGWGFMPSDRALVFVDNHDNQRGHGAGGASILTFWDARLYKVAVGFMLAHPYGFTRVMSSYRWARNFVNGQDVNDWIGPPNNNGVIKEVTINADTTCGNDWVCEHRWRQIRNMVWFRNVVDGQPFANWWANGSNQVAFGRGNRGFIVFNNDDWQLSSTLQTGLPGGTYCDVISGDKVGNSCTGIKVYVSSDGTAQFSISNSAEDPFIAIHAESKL", "experiment": "chromogenic enzyme inhibition assay ([…] nm), commercial porcine pancreatic amylase", "type": "biochemical"}},
  "data": [
    {"smiles": "Oc1cc(O)cc(Oc2cc(O)c3c(c2-c2c(O)cc(O)c4c2Oc2c(O)cc(Oc5c(O)cc(O)cc5O)c(Oc5cc(O)cc(O)c5)c2O4)Oc2c(O)cc(O)c(Oc4cc(O)cc(O)c4)c2O3)c1", "note": "[2,7″-Phloroglucinol-6,6′-bieckol]", "values": [
      {"measurement": "IC50", "setting": "α-glucosidase (yeast)", "result": 23.4, "unit": "µM"},
      {"measurement": "IC50", "setting": "[1]", "result": 6.94, "unit": "µM"}
    ]}
  ]
}
